Laboratory results published in the supplement of paper PMC10307832.

Experiments:
Assay in all cases: relative viability (nuclei count vs DMSO), 5 days (fraction); higher = more cells survive
CAP-232 + Crizotinib = compound: C[C@H]([C@@H](C(=O)N)NC(=O)[C@@H]1CSSC[C@@H](C(=O)N[C@H](C(=O)N[C@@H](C(=O)N[C@H](C(=O)N1)CCCCN)CC2=CNC3=CC=CC=C32)CC4=CC=C(C=C4)O)NC(=O)[C@@H](CC5=CC=CC=C5)N)O [CAP-232] + C[C@@H](Oc1cc(-c2cnn(C3CCNCC3)c2)cnc1N)c1c(Cl)ccc(F)c1Cl [Crizotinib] (partner 1 µM)
In short: (§1)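 Lung cancer cell lines were pin-tool dosed in 1536-well plates on the day after seeding, with either a lone drug or a fixed anchor-drug dose plus five library-drug doses (not always all listed) in √10 steps. Nuclei were counted on 4× images after 5 days. Relative viability is the ratio of treated-well to vehicle-well nuclei counts, with each value a median of duplicate plates.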

CAP-232 + Phenformin = compound: C[C@H]([C@@H](C(=O)N)NC(=O)[C@@H]1CSSC[C@@H](C(=O)N[C@H](C(=O)N[C@@H](C(=O)N[C@H](C(=O)N1)CCCCN)CC2=CNC3=CC=CC=C32)CC4=CC=C(C=C4)O)NC(=O)[C@@H](CC5=CC=CC=C5)N)O [CAP-232] + N=C(N)NC(=N)NCCc1ccccc1 [Phenformin] (partner 250 µM)
In short: as §1

CAP-232 + OSI-027 = compound: C[C@H]([C@@H](C(=O)N)NC(=O)[C@@H]1CSSC[C@@H](C(=O)N[C@H](C(=O)N[C@@H](C(=O)N[C@H](C(=O)N1)CCCCN)CC2=CNC3=CC=CC=C32)CC4=CC=C(C=C4)O)NC(=O)[C@@H](CC5=CC=CC=C5)N)O [CAP-232] + COc1cccc2cc(-c3nc([C@H]4CC[C@H](C(=O)O)CC4)n4ncnc(N)c34)[nH]c12 [OSI-027] (partner 0.5 µM)
In short: as §1

CAP-232 + Foretinib = compound: C[C@H]([C@@H](C(=O)N)NC(=O)[C@@H]1CSSC[C@@H](C(=O)N[C@H](C(=O)N[C@@H](C(=O)N[C@H](C(=O)N1)CCCCN)CC2=CNC3=CC=CC=C32)CC4=CC=C(C=C4)O)NC(=O)[C@@H](CC5=CC=CC=C5)N)O [CAP-232] + COc1cc2c(Oc3ccc(NC(=O)C4(C(=O)Nc5ccc(F)cc5)CC4)cc3F)ccnc2cc1OCCCN1CCOCC1 [Foretinib] (partner 0.25 µM)
In short: as §1

CAP-232 + Alpelisib = compound: C[C@H]([C@@H](C(=O)N)NC(=O)[C@@H]1CSSC[C@@H](C(=O)N[C@H](C(=O)N[C@@H](C(=O)N[C@H](C(=O)N1)CCCCN)CC2=CNC3=CC=CC=C32)CC4=CC=C(C=C4)O)NC(=O)[C@@H](CC5=CC=CC=C5)N)O [CAP-232] + Cc1nc(NC(=O)N2CCC[C@H]2C(N)=O)sc1-c1ccnc(C(C)(C)C(F)(F)F)c1 [Alpelisib] (partner 2 µM)
In short: as §1

Cell Line | relative viability (CAP-232 + Crizotinib; first compound 1.265 µM) | relative viability (CAP-232 + Crizotinib; first compound 4 µM) | relative viability (CAP-232 + Crizotinib; first compound 12.65 µM) | relative viability (CAP-232 + Phenformin; first compound 0.4 µM) | relative viability (CAP-232 + Phenformin; first compound 1.265 µM) | relative viability (CAP-232 + Phenformin; first compound 4 µM) | relative viability (CAP-232 + Phenformin; first compound 12.65 µM) | relative viability (CAP-232 + OSI-027; first compound 0.4 µM) | relative viability (CAP-232 + OSI-027; first compound 1.265 µM) | relative viability (CAP-232 + OSI-027; first compound 4 µM) | relative viability (CAP-232 + OSI-027; first compound 12.65 µM) | relative viability (CAP-232 + Foretinib; first compound 0.4 µM) | relative viability (CAP-232 + Foretinib; first compound 1.265 µM) | relative viability (CAP-232 + Foretinib; first compound 4 µM) | relative viability (CAP-232 + Foretinib; first compound 12.65 µM) | relative viability (CAP-232 + Alpelisib; first compound 1.265 µM) | relative viability (CAP-232 + Alpelisib; first compound 4 µM) | relative viability (CAP-232 + Alpelisib; first compound 12.65 µM) | relative viability (CAP-232 + Crizotinib; first compound 0.4 µM) | relative viability (CAP-232 + Alpelisib; first compound 0.4 µM)
NCI-H727 | 0.757 | 1.04 | 0.82 | 0.511 | 0.488 | 0.536 | 0.533 | 0.593 | 0.515 | 0.795 | 0.421 | 0.933 | 0.92 | 0.845 | 0.824 | 0.59 | 0.633 | 0.59 | – | –
NCI-H838 | 0.804 | 0.981 | 0.65 | 0.609 | 0.53 | 0.593 | 0.537 | 0.342 | 0.434 | 0.461 | 0.314 | 1.23 | 1.02 | 1.11 | 0.75 | 0.944 | 1.12 | 0.644 | 1.03 | 1.08
NCI-H1355 | 1.01 | 1.22 | 1.27 | 0.517 | 0.467 | 0.43 | 0.418 | 0.41 | 0.449 | 0.331 | 0.403 | 1.07 | 1.04 | 0.945 | 0.908 | 0.842 | 0.963 | 0.864 | 1.02 | 0.845
NCI-H1437 | 0.927 | 1.05 | 0.81 | 0.297 | 0.307 | 0.327 | 0.254 | 0.94 | 0.793 | 0.917 | 0.698 | 1.26 | 1.27 | 1.34 | 1.2 | 1.04 | 1.05 | 0.768 | 1.11 | 0.901
NCI-H1563 | 0.911 | 0.835 | 0.777 | 0.698 | 0.643 | 0.598 | 0.37 | 0.757 | 0.673 | 0.647 | 0.613 | 0.972 | 0.886 | 0.939 | 0.639 | 0.955 | 0.908 | 0.626 | 0.965 | 0.92
NCI-H1651 | 0.856 | 0.918 | 0.904 | 0.407 | 0.32 | 0.352 | 0.25 | 0.721 | 0.703 | 0.89 | 0.522 | 0.709 | 0.913 | 0.843 | 0.485 | 0.841 | 1.08 | 0.728 | 0.861 | 1.01
NCI-H1666 | – | 0.829 | 0.852 | 0.611 | 0.575 | 0.573 | 0.593 | 0.973 | 0.809 | 0.907 | 0.769 | 0.946 | 0.989 | 0.892 | 0.821 | – | 1.05 | 0.816 | 1.03 | 0.991
NCI-H1734 | 0.577 | 0.758 | 0.65 | 0.369 | 0.321 | 0.387 | 0.264 | 0.558 | 0.59 | 0.56 | 0.406 | 0.883 | 0.863 | 0.971 | 0.697 | 0.662 | 0.755 | 0.702 | 0.674 | 0.611
NCI-H1755 | 0.778 | 0.976 | 0.747 | 0.676 | 0.626 | 0.622 | 0.582 | 0.699 | 0.713 | 0.754 | 0.653 | 0.927 | 0.883 | 0.934 | 0.815 | 0.91 | 1.1 | 0.763 | 0.988 | 0.984
NCI-H1915 | 0.915 | 1.04 | 0.961 | 0.419 | 0.356 | 0.407 | 0.397 | 0.566 | 0.601 | 0.672 | 0.325 | 1.11 | 1.11 | 1.11 | 1.09 | 1.02 | 1.04 | 1.06 | 1.04 | 1.05
NCI-H1944 | 1.05 | 1.03 | 1.24 | 0.211 | 0.207 | 0.221 | 0.181 | 0.379 | 0.388 | 0.403 | 0.392 | 0.849 | 0.862 | 0.906 | 0.882 | 0.806 | 0.794 | 0.782 | 1.12 | 0.956
NCI-H1975 | 1.07 | 1.08 | 0.892 | 0.449 | 0.413 | 0.437 | 0.332 | 0.856 | 0.646 | 0.91 | 0.487 | 0.931 | 0.915 | 1.06 | 0.474 | 0.579 | 0.704 | 0.434 | 1.11 | 0.734
NCI-H1993 | 0.95 | 0.885 | 0.835 | 0.497 | 0.541 | 0.545 | 0.564 | 0.604 | 0.539 | 0.544 | 0.492 | 0.804 | 0.775 | 0.829 | 0.757 | 0.674 | 0.719 | 0.633 | 0.884 | 0.605
NCI-H2009 | 1.01 | 1.05 | 1.09 | 0.501 | 0.493 | 0.547 | 0.42 | 0.667 | 0.585 | 0.719 | 0.358 | 1.23 | 1.17 | 1.21 | 1.07 | 1.08 | 1.13 | 1.03 | 1.11 | 1.17
